Consider 17 compounds from ChEMBL document CHEMBL3856263, “Sesquiterpenes from the roots of Lindera strychnifolia with inhibitory effects on nitric oxide production in RAW 264.7 cells” (Bioorg Med Chem Lett, 2016).

Data set [1] in a line: Antiinflammatory activity against LPS-induced mouse RAW264.7 cells assessed as inhibition of NO production pretreated for 1 hr followed by LPS stimulation for 24 hrs by Griess assay. The class given is functional, cell-based. Background: The Griess reaction detects nitrite, a stable product of nitric oxide.
The species named for data set [2] is Mus musculus. As to the kind of experiment: Cytotoxicity against mouse RAW264.7 cells at <25 uM by MTT assay. Type of data set: toxicity, cell-based. For orientation: Tetrazolium assays rely on reduction of a dye to a coloured formazan, in cell work by metabolically active cells.

By IC50 is commonly meant the concentration that inhibits the measured activity by half. As to `COC(=O)/C(C)=C1\C(=O)O[C@]2(C)[C@@H]3C[C@@H]3[C@@](C)(CO)[C@H]2[C@@H]1O`, the IC50 in data set [1] was > 25 µM. Also, the Activity entry in data set [2] is recorded as “Non-Toxic”.
Regarding `C=C1[C@H]2CC3=C(C)C(=O)O[C@H]3C[C@]2(C)[C@H]2C[C@@H]12`, the IC50 in data set [1] was found to be 15.4 µM. The Activity result in data set [2] was “Non-Toxic”.
Take `Cc1coc2c1[C@H]1C=C(CC[C@@H]3O[C@@]3(C)C2)C(=O)O1` [PSEUDONEOLINDERANE]: the IC50 in data set [1] was > 25 µM. The Activity result in data set [2] was “Non-Toxic”.
Take `CC1=C2[C@@H]3OC(=O)[C@@]4(CC/C=C(\C)C[C@@]2(O)OC1=O)O[C@@H]34`: in data set [1], the IC50 is > 25 µM. For the same compound, the Activity result in data set [2] is given as “Non-Toxic”.
For the compound `CC(=O)O[C@H]1C2=C(C)C(=O)O[C@@]2(O)C[C@@]2(C)[C@@H]3C[C@@H]3[C@](C)(O)[C@@H]12`, the IC50 in data set [1] was 12.8 µM. In data set [2], the Activity entry is “Non-Toxic”.
For the compound `C=C1[C@H]2C[C@H]2[C@]2(C)C[C@@]3(O)OC(=O)C(C)=C3[C@H](OC)[C@H]12`, in data set [1], the IC50 turned out to be 21.6 µM. Moreover, the Activity entry in data set [2] is recorded as “Non-Toxic”.
For the compound `C=C1[C@H]2C[C@H]2[C@]2(C)C[C@H]3OC(=O)C(C)=C3[C@H](O)[C@H]12`, the IC50 in data set [1] worked out at 12.3 µM. Further, the Activity result in data set [2] is on record as “Non-Toxic”.
`C=C1[C@H]2C[C@H]2[C@]2(C)C[C@@]3(O)OC(=O)C(C)=C3[C@H](OC(C)=O)[C@H]12`: in data set [2], the Activity result is listed as “Non-Toxic”.
As to `C=C1Cc2occ(C)c2C2C=C(CC[C@H]1O)C(=O)O2` (stereo not given in full), in data set [1], the IC50 amounted to 9 µM. Moreover, the Activity entry in data set [2] was “Non-Toxic”.
The matching figures for `CC1=C2C[C@@H]3[C@@](C)(O)[C@H]4C[C@H]4[C@]3(C)C[C@]2(O)OC1=O`: 9.6 µM and “Non-Toxic”.
With `C=C1CC=C[C@@]2(C)C[C@@]3(O)OC(=O)C(C)=C3C[C@H]12`, the IC50 in data set [1] was > 25 µM. In addition, the Activity entry in data set [2] is listed as “Non-Toxic”.
The matching figures for `CC1=C2C(=O)[C@@H]3[C@](C)(O)[C@H]4C[C@H]4[C@@]3(C)C[C@H]2OC1=O`: 22.5 µM and “Non-Toxic”.
Consider `CC1=C2C[C@@H]3[C@@](C)(O)[C@H]4C[C@H]4[C@]3(C)C[C@@H]2OC1=O`, for which the Activity entry in data set [2] is given as “Non-Toxic”.
For `CC1=C2[C@H](O)[C@@H]3[C@@](C)(O)[C@H]4C[C@H]4[C@]3(C)C[C@]2(O)OC1=O`, in data set [1], the IC50 was 14.6 µM. In addition, the Activity entry in data set [2] is given as “Non-Toxic”.
On to `N=C(N)NN` [PIMAGEDINE], for which the IC50 in data set [1] came out at 18.4 µM.
Regarding `CO[C@@]1(C)[C@H]2C[C@H]2[C@]2(C)C[C@@H]3OC(=O)C(C)=C3C[C@@H]21`, in data set [1], the half-inhibitory concentration (IC50) worked out at 6.3 µM. In addition, the Activity result in data set [2] is on record as “Non-Toxic”.
Consider `C=C1[C@H]2C[C@H]2[C@]2(C)C[C@]3(O)OC(=O)C(C)=C3[C@H](OC(C)=O)[C@H]12`, for which the Activity result in data set [2] is “Non-Toxic”.
